Counter-ions that a name gives are not always drawn.
system: not given; assay: not given; details: not given

Q: With CC=CNC(=S)Nc1ccc2nc(-c3ccc(O)cc3)c(-c3ccc(O)cc3)nc2n1 [Example 28, 1-[2,3-Bis(4-hydroxyphenyl)pyrido[2,3-b]pyrazin-6-yl]-3-(propenyl)thiourea] as the compound, how does the melting point read?
A: 240 °C (dec.)

Q: For C#CCNC(=S)Nc1ccc2ncc(-c3ccc(O)cc3)nc2n1 [Example 24, 1-[3-(4-Hydroxyphenyl)pyrido[2,3-b]pyrazin-6-yl]-3-prop-2-ynylthiourea], which melting point is on record?
A: 350 °C (dec.)

system: c-Raf-Mek-Erk cascade; assay: c-Raf-Mek-Erk ELISA (cell-free reconstituted kinase cascade, Erk phosphorylation); assay type: biochemical, human; details: inhibition of Erk phosphorylation, 1 mM ATP, 10 concentrations 31.6 pM-100 μM, read-out: IC50
Method: The inhibitory effect on the following human serine/threonine and tyrosine kinases of the compounds of the invention was tested in conventional kinase assays: PKB/Akt1, c-Raf-Mek-Erk, B-Raf-Mek-Erk, Mek-Erk, MAPKs, PDGFRbeta, Flt-3, c-Kit, c-Abl, KDR, FGFR1 and IGF1R. Both the full-length kinases and truncated fragments—but at least the cytoplasmic kinase domains—were employed. The kinases were prepared as recombinant fusion proteins with GST (glutathion S-transferase) or HIS Tag in Sf9 cell culture. Depending on the substrate type, the various kinase reactions were carried out in sandwich ELISA formates or by means of a simple substrate adsorption assay on 96-well Flashplates (Perkin Elmer).
The testing on substances on the c-Raf-Mek-Erk cascade is described in detail below. Selected test results for the c-Raf-Mek-Erk assays are then listed.
Procedure: c-Raf-Mek-Erk ELISA
Potential inhibitors were firstly investigated at a concentration of 20 μg/ml in initial single-dose determinations on 96-well microtiter plates (MTPs). Substances with >70% inhibition were employed for dose-response studies.
Reconstitution of the c-Raf-Mek-Erk cascade was quantified with the aid of a cell-free ELISA.
A typical kinase assay was carried out in a final volume of 50 μl with in each case 20-150 ng of Raf, Mek, Erk protein, 1 mM ATP, 10 mM MgCl2, 150 mM NaCl, 25 mM beta-glycerophosphate, 25 mM Hepes pH 7.5. Before the kinase reaction, the test substances were each preincubated singly with each of the three kinase proteins at room temperature for 30 minutes. For the kinase reaction, the kinases preincubated with test substance were combined and incubated at 26° C. for 30 minutes. The reaction was stopped by a final concentration of 2% SDS and 10 minutes at 50° C. in a heating block.
For the immunodetection, the reaction mixtures were transferred to 96-well MTPs coated with anti-Erk Ab(K-23, Santa Cruz Biotechnology, incubated at room temperature for 60 minutes and washed 3× with TBST. Anti-phospho-Erk Ab (#9106, New England Biolabs) 1:500 in 50 μl of TBST/1% BSA, was added and incubated at 4° C. overnight. After the MTPs had been washed 3× with TBST, secondary anti-mouse IgG^POD conjugate (#NA931, Pharmacia) 1:2500 was added, incubated at room temperature for 1 h and again washed 3× with TBST. For colorimetric detection of the kinase reaction, 50 μl of OPD (o-phenyldiamine dihydrochloride) chromogen buffer were pipetted into each of the wells and incubated at 37° C. for 30 minutes. The colour reaction was then determined in an ELISA reader at 492 nm.
The experimental determination of dose-response plots took place using the same experimental design with 10 semilogarithmically graded concentrations from 31.6 pM-100 μM. The IC50 values were calculated in GraphPadPrism.

Q: For C=CCNC(=S)Nc1ccc2ncc(-c3ccc4ccccc4c3)nc2n1 [Example 2, 1-Allyl-3-(3-naphthalen-2-ylpyrido[2,3-b]pyrazin-6-yl)thiourea], which IC50 is on record?
A: 16 µM

Q: With S=C(Nc1ccc2ncc(-c3ccccc3)nc2n1)NC1CC1 [Example 11, 1-Cyclopropyl-3-(3-phenylpyrido[2,3-b]pyrazin-6-yl)thiourea] as the compound, how does the IC50 read?
A: 0.9 µM

Q: Which IC50 does the source give for CC(C)(C)NC(=S)Nc1ccc2ncc(-c3ccccc3)nc2n1 [Example 10, 1-tert-Butyl-3-(3-phenylpyrido[2,3-b]pyrazin-6-yl)thiourea] here?
A: > 100 µM

Q: For C=C(C)CNC(=S)Nc1ccc2ncc(-c3ccc(OC)cc3)nc2n1 [Example 7, 1-[3-(4-Methoxyphenyl)pyrido[2,3-b]pyrazin-6-yl]-3-(2-methylallyl)thiourea], which IC50 is on record?
A: 43 µM

Q: For O=[N+]([O-])c1ccc(NC(=S)Nc2ccc3ncc(-c4ccc5ccccc5c4)nc3n2)cc1 [Example 8, 1-(3-Naphthalen-2-ylpyrido[2,3-b]pyrazin-6-yl)-3-(4-nitrophenyl)thiourea], which IC50 is on record?
A: > 100 µM

Q: For C=CCNC(=S)Nc1ccc2ncc(-c3ccc(OC)cc3)nc2n1 [Example 3, 1-Allyl-3-[3-(4-methoxyphenyl)pyrido[2,3-b]pyrazin-6-yl]thiourea], which IC50 is on record?
A: ~1 µM

Q: For O=C(Nc1ccc(Cl)c(C(F)(F)F)c1)Nc1ccc2ncc(-c3ccccc3)nc2n1 [Example 34, 1-(4-Chloro-3-trifluoromethylphenyl)-3-(3-phenylpyrido[2,3-b]pyrazin-6-yl)urea], which IC50 is on record?
A: > 100 µM

Q: For C=C(C)CNC(=S)Nc1ccc2ncc(-c3ccc4ccccc4c3)nc2n1 [Example 6, 1-(2-Methylallyl)-3-(3-naphthalen-2-ylpyrido[2,3-b]pyrazin-6-yl)thiourea], which IC50 is on record?
A: ~100 µM

Q: For C=C(C)CNC(=S)Nc1ccc2ncc(-c3ccccc3)nc2n1 [Example 5, 1-(2-Methylallyl)-3-(3-phenylpyrido[2,3-b]pyrazin-6-yl)thiourea], which IC50 is on record?
A: ~1 µM

Q: For C=CCNC(=S)Nc1ccc2ncc(-c3ccccc3)nc2n1 [Example 1, 1-allyl-3-(3-phenylpyrido[2,3-b]pyrazin-6-yl)thiourea], which IC50 is on record?
A: ~1 µM

Q: Which IC50 does the source give for Fc1ccc(NC(=S)Nc2ccc3ncc(-c4ccccc4)nc3n2)cc1 [Example 14, 1-(4-Fluorophenyl)-3-(3-phenylpyrido[2,3-b]pyrazin-6-yl)thiourea] here?
A: ~50 µM

Q: For Cc1ccc(NC(=O)Nc2ccc3ncc(-c4ccccc4)nc3n2)cc1 [Example 33, 1-(3-Phenylpyrido[2,3-b]pyrazin-6-yl)-3-p-tolylurea], which IC50 is on record?
A: > 100 µM

Q: For COc1ccc(-c2cnc3ccc(NC(=S)Nc4ccc([N+](=O)[O-])cc4)nc3n2)cc1 [Example 9, 1-[3-(4-Methoxyphenyl)pyrido[2,3-b]pyrazin-6-yl]-3-(4-nitrophenyl)thiourea], which IC50 is on record?
A: > 100 µM

Q: For S=C(NCc1ccccc1)Nc1ccc2ncc(-c3ccccc3)nc2n1 [Example 13, 1-Benzyl-3-(3-phenylpyrido[2,3-b]pyrazin-6-yl)thiourea], which IC50 is on record?
A: > 100 µM

Q: With O=C(NCCN1CCOCC1)Nc1ccc2ncc(-c3ccccc3)nc2n1 [Example 35, 1-(2-Morpholin-4-ylethyl)-3-(3-phenylpyrido[2,3-b]pyrazin-6-yl)urea] as the compound, how does the IC50 read?
A: 15 µM

same assay, conditions: read-out: IC50 values, inhibition of Erk phosphorylation

Q: With C=CCNC(=S)Nc1ccc2ncc(-c3ccc(O)cc3)nc2n1 [Example 4, 1-Allyl-3-[3-(4-hydroxyphenyl)pyrido[2,3-b]pyrazin-6-yl]thiourea hydrochloride] as the compound, how does the IC50 read?
A: 0.4 µM

Q: For CNC(=S)Nc1ccc2ncc(-c3ccccc3)nc2n1 [Example 12, 1-Methyl-3-(3-phenylpyrido[2,3-b]pyrazin-6-yl)thiourea], which IC50 is on record?
A: 0.4 µM

— US8193186B2, “Pyridopyrazines and the use thereof as kinase inhibitors” (AEterna Zentaris GmbH, priority 2003, dated 2012)
